Results on one molecule are retold here after US20230321106A1, “USE OF TOPICAL BRAF INHIBITOR COMPOSITIONS FOR TREATMENT OF EPIDERMAL GROWTH FACTOR RECEPTOR DOWNSTREAM EFFECTORS - INDUCED CUTANEOUS REACTIONS” (Lutris Pharma Ltd., priority 2020, published 2023).

The test system of data set [1] is phosphorylated ERK1/2 (MAPK pathway) in primary adult human epidermal keratinocytes (HEKa). Briefly: pERK induction in HEKa cells, Western blot (phosphorylated ERK1/2 / total ERK2). The note with it: 0.3 μM, two hours. It counts as cell-based. The protocol:
Primary HEKa, isolated from adult skin of a single donor and cryopreserved at the end of primary culture (Gibco catalog number C0055C, Thermo Fisher Scientific, Waltham, MA), were cultured in T25 flasks at 37° C., 5% CO2 in growth medium (Epilife™ CF Kit, Gibco) supplemented with 60 μM calcium (Gibco) and HKGS (Gibco). After at least three passages, cells were harvested with trypsin when flask reached 70-80% confluence, and seeded in 10 cm culture dishes (250,000 cells/dish) in 9 ml of growth medium overnight. To analyze the effect of HKGS or a BRAF inhibitor on pERK, cells were starved for 2.5 hours in 5 mL of starvation medium without HKGS, and then individual plates were incubated for two hours with DMSO 0.1%, HKGS, vemurafenib 0.3 μM (0.146 μg/mL), or LUT014 0.3 μM (0.158 μg/mL). To analyze the effects of LUT014 to re-activate pERK in HKGS-activated HEKa cells cultured in an EGFR inhibitor, cells were seeded in 60 mm dishes (120,000 cells/dish) in 4 ml growth medium. […] The signals of phosphorylated ERK1/2 and total ERK2 were quantified using ImageJ software and the phosphorylated ERK1/2/total ERK2 ratio was calculated. For the quantification, equal sized rectangles were drawn around the bands of the phosphorylated ERK1/2 and the total ERK2 and the pixels in each rectangle were measured.
In general terms: A western blot detects proteins with antibodies after separation by electrophoresis.

In data set [2] the test system is phosphorylated ERK1/2 (MAPK pathway) in HKGS-activated HEKa cells. Briefly: Reversal of EGFR inhibitor-mediated pERK inhibition in HKGS-activated HEKa cells, Western blot. The class given is cell-based, human. The note with it: HKGS plus EGFR inhibitor plus LUT014 0.3 μM, two hours.
Experimental: Primary HEKa, isolated from adult skin of a single donor and cryopreserved at the end of primary culture (Gibco catalog number C0055C, Thermo Fisher Scientific, Waltham, MA), were cultured in T25 flasks at 37° C., 5% CO2 in growth medium (Epilife™ CF Kit, Gibco) supplemented with 60 μM calcium (Gibco) and HKGS (Gibco). After at least three passages, cells were harvested with trypsin when flask reached 70-80% confluence, and seeded in 10 cm culture dishes (250,000 cells/dish) in 9 ml of growth medium overnight. To analyze the effect of HKGS or a BRAF inhibitor on pERK, cells were starved for 2.5 hours in 5 mL of starvation medium without HKGS, and then individual plates were incubated for two hours with DMSO 0.1%, HKGS, vemurafenib 0.3 μM (0.146 μg/mL), or LUT014 0.3 μM (0.158 μg/mL). […] Cells were harvested with 1 ml cold PBS containing EDTA-free, phosphatase inhibitor cocktail (MilliporeSigma, Burlington, MA) using a cell scraper. […] The signals of phosphorylated ERK1/2 and total ERK2 were quantified using ImageJ software and the phosphorylated ERK1/2/total ERK2 ratio was calculated. For the quantification, equal sized rectangles were drawn around the bands of the phosphorylated ERK1/2 and the total ERK2 and the pixels in each rectangle were measured.
Data set [3] is described as follows: Phase 1 clinical trial of topical LUT014 gel: safety and tolerability. The class given is in vivo, human. An excerpt: This was an open-label, dose escalation study of LUT014 gel topically administered for four weeks. A 2-week screening period (day −14 to day −1) was followed by a 4-week treatment period (day 0 to day 27). Patients applied the study drug once daily to their face, neck, chest, and upper back. The post-treatment safety follow-up period ran from day 28 to day 55. Additionally, two long term safety follow up visits were done 3 and 6 months after completion of treatment, including a dermatological exam to detect any potential BRAF inhibitor skin toxicities within the treatment area.
Three dose levels of LUT014 gel were tested: 0.3 mg/g, 1.0 mg/g and 2.5 mg/g. The dose of LUT014 was escalated in sequential dose cohorts of 3 to 6 patients, in a conventional 3+3 escalating dose design. Escalation to the next dose level was permitted if no DLT was reported by the three patients in the cohort within 4 weeks of receiving the first dose of LUT014. If one out of three patients developed a dose limiting toxicity (DLT), additional three patients were planned to be treated with study drug at the same dose level. At any given dose level, if more than one out of the three or six patients experienced a DLT within 4 weeks of receiving the first dose of LUT014, the dose level was determined to have exceeded the MTD, and the MTD was set to be the next lower dose.
A DLT was defined as any treatment-emergent grade 2 or higher clinically significant adverse event, with the exception of a transient grade 2 adverse event (i.e., one that returns to grade 1 or baseline within 7 days) or grade 2 adverse event that was manageable with standard of care (i.e., one that returns to grade 1 or baseline within 14 days), that occurred within 4 weeks of the first dose of study drug for which there was a reasonable possibility that LUT014 had caused the event. Upon completion of the 4-week treatment period of the third patient in each dosing cohort, a Safety Review Committee (SRC) meeting was set to review the safety data and to provide recommendation/decision on dose escalation/de-escalation, or expansion of dosing cohort.
Safety and tolerability were assessed primarily based on the adverse events from day 0 to day 55. In addition to the adverse events assessment, the safety measurements included physical examination, vital signs and body weight, 12-lead ECG, ECOG performance status, safety labs including complete blood count, comprehensive metabolic panel and urinalysis. At 3 and 6 months […] a dermatologist performed a skin assessment of the areas of the skin where LUT014 gel was applied to screen for potential cutaneous toxicities known to be associated with approved BRAF inhibitors, including erythema nodosum-type rash, photosensitivity, squamous papillomas or warts, keratoacanthomas, cutaneous squamous cell carcinoma, dry skin, and folliculitis or cysts (Welsh, et al., Therapeutic advances in medical oncology 7, 122-136, 2015).

The nature of data set [4]: Phase 1 clinical trial: plasma pharmacokinetics (LC-MS/MS). It counts as in vivo, human. Particulars: patients, topical gel; for systemic absorption / exposure after topical administration: plasma. The method, then: Blood samples for PK analysis were taken from the initial three patients enrolled to each dosing cohort (total 9 patients). PK samples were collected pre-dose on day 0 and day 7 and at 1, 2, 4, 8 and 24 hours post-dose. A qualified liquid chromatography tandem mass spectroscopy LC-MS/MS analytical assay with an LLOQ of 10 pg/ml was used to determine concentrations of LUT014 in plasma. Plasma concentrations below the limit of quantitation (<10 pg/mL) were treated as zero for the calculations of mean (SD).
Tabular summaries of the secondary safety assessments included descriptive statistics (i.e., mean, standard deviation, median, and range for continuous data and frequency for categorical data) for each visit assessed, as well as for the calculated changes from baseline. For the pharmacokinetics analyses, plasma LUT014 concentration-time profiles were analyzed by non-compartmental methods and PK parameters were calculated by standard equations, when plasma levels are achieved. PK analyses produced using Phoenix® WinNonLin (Certara, Princeton, NJ). The efficacy assessments NCI CTCAE skin and subcutaneous tissue disorders grading scale, MASCC Study Group EGFR Inhibitor-dermatologic adverse event grading scale, FACT-EGFRI-13 questionnaire, were summarized by treatment group using descriptive statistics as appropriate (i.e., mean, standard deviation, median, and range for continuous data and frequency for categorical data). All analyses were performed using SAS® Software (version 9.2, SAS Institute, Cary, NC).

The mark [5] stands for this setting: topical gel 0.3, 1.0, 2.5 mg/g once daily, 4 weeks, 10 patients.

“Also recorded” adds a separate entry of the source.

Take `Cc1ccc2c(Nc3cccc(OC(F)(F)F)c3)nccc2c1Nc1ncccc1-c1ncnc2[nH]cnc12` [LUT014]: the “increase in pERK, compared with HKGS” value in data set [1] is “higher”. The “effect on pERK inhibition by EGFR inhibitors (erlotinib, cetuximab)” value in data set [2] is reported as “abrogated the inhibitory effect of both EGFR inhibitors”. Besides, in data set [3] (all cohorts), the “toxicities associated with oral systemic BRAF inhibitors (photosensitivity, maculo-papular rash, hyperkeratosis)” value is reported as “no local or systemic toxicities”. For the same molecule, in data set [3] (all cohorts, 10 patients, pruritus, dry skin, stinging sensation), the “patients with an adverse event considered related to the study drug” value is “Seven”. In addition, in data set [3] (human, in vivo, 4 weeks), the “Treatment-related adverse events: Dry skin, All Grades” value is listed as 1; the “Treatment-related adverse events: Dry skin, Grade 3 or 4” value was 0; the “Treatment-related adverse events: Local Pain, All Grades” value turned out to be 1; the “Treatment-related adverse events: Local Pain, Grade 3 or 4” value amounted to 0. In addition, in data set [3] (human, in vivo, 4 weeks), the “Treatment-related adverse events: Pruritus, All Grades” value stood at 6; the “Treatment-related adverse events: Pruritus, Grade 3 or 4” value came out at 0; the “severity grade of related adverse events” value is recorded as 1-2; the “total adverse events of any attribution” value was 38. Further, in data set [3] (setting [5]), the dose-limiting toxicities result is reported as “no dose-limiting toxicities; also recorded: no dose limiting toxicity” and the tolerability result is given as “well tolerated”. In addition, in data set [4], the “plasma concentrations lower than effective systemic concentrations of other BRAF inhibitors” value is 3 to 4 orders of magnitude. In data set [4] (day 0 and day 7), the plasma concentrations entry is listed as “in the pg/mL range”; the “systemic absorption / exposure after topical administration” value is “negligible absorption and minimal systemic exposure”. Besides, the “systemic absorption / exposure after topical administration” value in data set [4] (day 0 and day 7, listed as compound of formula IV) is given as “negligible to minimal systemic absorption”.
